From US20070128217A1 (priority 2003, published 2007)

Columns and labels:
[1] = test system: control sera (pooled serum of ten healthy LUMC hospital workers; commercial negative donor pooled serum from the Dutch bloodbank); type: binding, human; parameters: Binding of Control serum LUMC to linear peptides / Binding of Control serum Blood-bank to linear peptides / Binding of Control serum LUMC to looped peptides / Binding of Control Serum Blood-Bank to Looped peptides / Binding of Control serum LUMC to linear peptides of the protein M of SARS-CoV Urbani / Binding of Control serum Blood-bank to linear peptides of the protein M of SARS-CoV Urbani / Binding of Control serum LUMC to looped peptides of the protein M of SARS-CoV Urbani / Binding of Control Serum Blood-Bank to Looped peptides of the protein M of SARS-CoV Urbani: unit not given here
[2] = test system: antibodies in sera from SARS patients (sera 1a, 1b, 2, 6, 37, 62, London, SARS-yellow, SARS-green); type: binding, human; parameters: Binding of serum 6 to linear peptides of protein X1 of SARS-CoV Urbani / Binding of serum 37 to linear peptides of protein X1 of SARS-CoV Urbani / Binding of serum 6 to looped/cyclic peptide (PEPSCAN-ELISA) / Binding of serum 37 to looped/cyclic peptide (PEPSCAN-ELISA) / Binding of serum 37 to looped/cyclic peptides of protein X1 of SARS-CoV Urbani / Binding of serum 6 to linear peptides of protein X2 / Binding of serum 37 to linear peptides of protein X2 / Binding of serum 37 to looped/cyclic peptides of protein X2 of SARS-CoV Urbani / Binding of serum 6 to linear peptides of protein M of SARS-CoV Urbani / Binding of serum 37 to linear peptides of protein M of SARS-CoV Urbani / Binding of serum 6 to looped/cyclic peptides of protein M of SARS-CoV Urbani / Binding of serum 37 to looped/cyclic peptides of protein M of SARS-CoV Urbani / Binding of serum 6 to linear peptides of protein X3 of SARS-CoV Urbani / Binding of serum 37 to linear peptides of protein X3 of SARS-CoV Urbani / Binding of serum 37 to looped/cyclic peptides of protein X3 of SARS-CoV Urbani / Binding of serum 6 to linear peptides of protein X4 of SARS-CoV Urbani / Binding of serum 37 to linear peptides of protein X4 of SARS-CoV Urbani / Binding of serum 37 to looped/cyclic peptides of protein X4 of SARS-CoV Urbani / Binding of serum 6 to linear peptides of protein X5 of SARS-CoV Urbani / Binding of serum 37 to linear peptides of protein X5 of SARS-CoV Urbani / Binding of serum 37 to looped/cyclic peptides of protein X5 of SARS-CoV Urbani / Binding of serum 6 to linear peptides of protein N of SARS-CoV Urbani / Binding of serum 37 to linear peptides of protein N of SARS-CoV Urbani / Binding of serum 6 to linear peptide (PEPSCAN-ELISA) / Binding of serum 1a to looped/cyclic peptides of protein N of SARS-CoV Urbani / Binding of serum 1b to looped/cyclic peptides of protein N of SARS-CoV Urbani / Binding of serum 2 to looped/cyclic peptides of protein N of SARS-CoV Urbani / Binding of serum 6 to looped/cyclic peptides of protein N of SARS-CoV Urbani / Binding of serum 37 to looped/cyclic peptides of protein N of SARS-CoV Urbani / Binding of serum 62 to looped/cyclic peptides of protein N of SARS-CoV Urbani / Binding of serum London to looped/cyclic peptides of protein N of SARS-CoV Urbani / Binding of serum SARS-green to looped/cyclic peptides of protein N of SARS-CoV Urbani: unit not given here
[3] = test system: rabbit serum obtained by immunizing a rabbit with the SARS-CoV strain Frankfurt 1; type: binding; parameters: Binding of a rabbit serum to linear peptides / Binding of a rabbit serum to looped peptides / Rabbit serum linear peptides / Rabbit serum looped peptides / Binding of a rabbit serum to linear peptides of protein N of SARS-CoV Urbani (Rabbit serum linear peptides) / Binding of a rabbit serum to looped/cyclic peptides of protein N of SARS-CoV Urbani (Rabbit serum looped peptides): unit not given here
[4] = test system: recombinant human anti-SARS-CoV antibody 03-018; type: binding; parameters: Binding of antibody 03-018 to linear peptides of the N protein of SARS-CoV Urbani / Binding of antibody 03-018 to looped/cyclic peptides of the N protein of SARS-CoV Urbani: unit not given here

Row | Sequence | Binding of Control Serum Blood-Bank to Looped peptides [1] | Binding of Control serum Blood-bank to linear peptides [1] | Binding of Control serum LUMC to linear peptides [1] | Binding of Control serum LUMC to looped peptides [1] | Binding of serum 1a to looped/cyclic peptides of protein N of SARS-CoV Urbani [2] | Binding of serum 1b to looped/cyclic peptides of protein N of SARS-CoV Urbani [2] | Binding of serum 2 to looped/cyclic peptides of protein N of SARS-CoV Urbani [2] | Binding of serum 6 to looped/cyclic peptides of protein N of SARS-CoV Urbani [2] | Binding of serum 37 to looped/cyclic peptides of protein N of SARS-CoV Urbani [2] | Binding of serum 62 to looped/cyclic peptides of protein N of SARS-CoV Urbani [2] | Binding of serum London to looped/cyclic peptides of protein N of SARS-CoV Urbani [2] | Binding of serum SARS-green to looped/cyclic peptides of protein N of SARS-CoV Urbani [2] | Binding of serum SARS-yellow to looped/cyclic peptides of protein N of SARS-CoV Urbani [2] | Binding of a rabbit serum to linear peptides of protein N of SARS-CoV Urbani (Rabbit serum linear peptides) [3] | Binding of a rabbit serum to looped/cyclic peptides of protein N of SARS-CoV Urbani (Rabbit serum looped peptides) [3] | Binding of antibody 03-018 to linear peptides of the N protein of SARS-CoV Urbani [4] | Binding of antibody 03-018 to looped/cyclic peptides of the N protein of SARS-CoV Urbani [4] | Binding of serum 1a to linear peptides of protein N of SARS-CoV Urbani [2] | Binding of serum 1b to linear peptides of protein N of SARS-CoV Urbani [2] | Binding of serum 2 to linear peptides of protein N of SARS-CoV Urbani [2] | also measured
1 | SRGNSRNSTPGSSRG | 0.4 | 0.9 | 0.8 | 0.4 | 0.6 | 0.4 | 0.2 | 0.2 | 0.4 | 0.3 | 0.3 | 0.1 | 0.2 | 0.2 | 0.2 | 0.1 | 0.2 | – | – | – | Binding of serum 1a to linear peptide (PEPSCAN-ELISA) [2]: 0.7; Binding of serum 1b to linear peptide (PEPSCAN-ELISA) [2]: 0.4; Binding of serum 2 to linear peptide (PEPSCAN-ELISA) [2]: 0.2; Binding of serum 6 to linear peptide (PEPSCAN-ELISA) [2]: 0.2; Binding of serum 37 to linear peptide (PEPSCAN-ELISA) [2]: 0.7; Binding of serum 62 to linear peptide (PEPSCAN-ELISA) [2]: 0.7; Binding of serum London to linear peptide (PEPSCAN-ELISA) [2]: 0.5; Binding of serum SARS-green to linear peptide (PEPSCAN-ELISA) [2]: 0.4; Binding of serum SARS-yellow to linear peptide (PEPSCAN-ELISA) [2]: 0.7
2 | GPEQTQGNFGDQDLI | 0.5 | 0.8 | 0.8 | 0.6 | 0.4 | 0.4 | 0.4 | 0.2 | 0.6 | 0.4 | 0.3 | 0.9 | 0.6 | 0.2 | 0.3 | 0.1 | 0.2 | – | – | – | Recognition of the peptide by sera of SARS-CoV infected individuals, and form (linear, looped/cyclic) in which it is recognized [2]: recognized in linear form
3 | QLQNSMSGASADSTQ | – | – | – | – | 0.3 | 0.1 | 0.4 | 0.1 | 0.4 | 0.1 | 0.3 | 0.1 | 0.1 | 0.7 | 0.5 | 0.1 | 0.2 | 0.2 | 0.1 | 0.2 | Control Serum Blood-Bank Looped peptides [1]: 0.5; Control serum Blood-bank linear peptides [1]: 0.8; Control serum LUMC linear peptides [1]: 0.6; Control serum LUMC looped peptides [1]: 0.4; Binding of serum 6 to linear peptides of protein N of SARS-CoV Urbani [2]: 0.1; Binding of serum 37 to linear peptides of protein N of SARS-CoV Urbani [2]: 0.7; Binding of serum 62 to linear peptides of protein N of SARS-CoV Urbani [2]: 0.5; Binding of serum London to linear peptides of protein N of SARS-CoV Urbani [2]: 0.6; Binding of serum SARS-green to linear peptides of protein N of SARS-CoV Urbani [2]: 0.3; Binding of serum SARS-yellow to linear peptides of protein N of SARS-CoV Urbani [2]: 0.6
4 | KDNVILLNKHIDAYK | – | – | – | – | 0.3 | 0.2 | 0.2 | 0.1 | 0.4 | 0.3 | 0.3 | 0.1 | 0.4 | 0.2 | 0.4 | 0.1 | 0.2 | 0.3 | 0.2 | 0.3 | Control Serum Blood-Bank Looped peptides [1]: 0.5; Control serum Blood-bank linear peptides [1]: 0.8; Control serum LUMC linear peptides [1]: 0.7; Control serum LUMC looped peptides [1]: 0.5; Binding of serum 6 to linear peptides of protein N of SARS-CoV Urbani [2]: 0.3; Binding of serum 37 to linear peptides of protein N of SARS-CoV Urbani [2]: 0.7; Binding of serum 62 to linear peptides of protein N of SARS-CoV Urbani [2]: 0.8; Binding of serum London to linear peptides of protein N of SARS-CoV Urbani [2]: 0.6; Binding of serum SARS-green to linear peptides of protein N of SARS-CoV Urbani [2]: 0.4; Binding of serum SARS-yellow to linear peptides of protein N of SARS-CoV Urbani [2]: 0.8
5 | RRVRGGDGKMKELSP | 0.6 | 0.9 | 0.9 | 0.6 | 0.3 | 0.1 | 0.3 | 0.2 | 0.4 | 0.3 | 0.4 | 0.1 | 0.3 | 0.2 | 0.4 | 0.1 | 0.2 | 0.3 | 0.2 | 0.4 | Binding of serum 6 to linear peptides of protein N of SARS-CoV Urbani [2]: 0.2; Binding of serum 37 to linear peptides of protein N of SARS-CoV Urbani [2]: 0.7; Binding of serum 62 to linear peptides of protein N of SARS-CoV Urbani [2]: 0.8; Binding of serum London to linear peptides of protein N of SARS-CoV Urbani [2]: 0.6; Binding of serum SARS-green to linear peptides of protein N of SARS-CoV Urbani [2]: 0.4; Binding of serum SARS-yellow to linear peptides of protein N of SARS-CoV Urbani [2]: 0.8
